Read-outs that look alike come from different tables or passages of the source.
Legend:
Type in all cases: cell-based
hGIPR = target: T1, hGIPR (Homo sapiens, UniProt P48546); experiment: Functional cAMP formation (HTRF) in HEK-293 clonal cells expressing hGIPR, 0.1% bovine casein, without or with 1.0% human serum albumin; settings: for EC50: geometric mean
T1 construct: expressed in transfected cells
T1 sequence (P48546 22-466): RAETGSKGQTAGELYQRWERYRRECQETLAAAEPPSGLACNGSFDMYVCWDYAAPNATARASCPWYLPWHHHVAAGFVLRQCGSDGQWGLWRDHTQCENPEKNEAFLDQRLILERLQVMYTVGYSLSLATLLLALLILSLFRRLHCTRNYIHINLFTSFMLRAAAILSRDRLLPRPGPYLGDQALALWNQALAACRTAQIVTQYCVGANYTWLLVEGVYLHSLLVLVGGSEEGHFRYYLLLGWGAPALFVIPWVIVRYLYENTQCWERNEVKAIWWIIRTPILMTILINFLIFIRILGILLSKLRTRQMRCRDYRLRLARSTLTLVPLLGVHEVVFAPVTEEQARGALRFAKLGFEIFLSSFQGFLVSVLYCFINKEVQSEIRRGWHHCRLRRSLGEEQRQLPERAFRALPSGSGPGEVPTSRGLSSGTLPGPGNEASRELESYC
Outline: (§1)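 Cells were stimulated with peptide for 30 min at 37° C, then intracellular cAMP was measured by competitive HTRF (665/620 nm ratio) and converted to nM using a cAMP standard curve. Relative EC50 and Emax came from four-parameter logistic fits of percent maximal response against peptide concentration.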

hGCGR = target: T2, hGCGR (Homo sapiens, UniProt P47871); experiment: Functional cAMP formation (HTRF) in HEK-293 clonal cells expressing hGCGR, 0.1% bovine casein, without or with 1.0% human serum albumin
T2 construct: expressed in transfected cells
T2 sequence (P47871 26-477): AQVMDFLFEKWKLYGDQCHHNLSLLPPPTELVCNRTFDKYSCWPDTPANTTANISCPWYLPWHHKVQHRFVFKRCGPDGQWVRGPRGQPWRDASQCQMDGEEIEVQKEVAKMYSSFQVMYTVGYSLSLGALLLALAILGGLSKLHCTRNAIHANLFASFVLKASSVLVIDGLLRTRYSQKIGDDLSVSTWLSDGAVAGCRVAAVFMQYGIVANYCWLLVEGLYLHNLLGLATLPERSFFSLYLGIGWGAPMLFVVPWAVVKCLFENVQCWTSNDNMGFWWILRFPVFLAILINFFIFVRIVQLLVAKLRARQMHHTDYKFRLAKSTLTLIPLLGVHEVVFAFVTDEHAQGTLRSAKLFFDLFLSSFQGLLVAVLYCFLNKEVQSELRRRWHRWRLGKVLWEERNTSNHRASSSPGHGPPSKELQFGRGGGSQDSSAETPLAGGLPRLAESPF
Outline: as §1

hGLP-1R = hGLP-1R (Homo sapiens, UniProt P43220); experiment: Functional cAMP formation (HTRF) in HEK-293 clonal cells expressing hGLP-1R, 0.1% bovine casein, without or with 1.0% human serum albumin; set-up: expressed in transfected cells; settings: for EC50: hGLP-1R EC50, nM (SEM, n), cAMP
Sequence of hGLP-1R (P43220 24-463): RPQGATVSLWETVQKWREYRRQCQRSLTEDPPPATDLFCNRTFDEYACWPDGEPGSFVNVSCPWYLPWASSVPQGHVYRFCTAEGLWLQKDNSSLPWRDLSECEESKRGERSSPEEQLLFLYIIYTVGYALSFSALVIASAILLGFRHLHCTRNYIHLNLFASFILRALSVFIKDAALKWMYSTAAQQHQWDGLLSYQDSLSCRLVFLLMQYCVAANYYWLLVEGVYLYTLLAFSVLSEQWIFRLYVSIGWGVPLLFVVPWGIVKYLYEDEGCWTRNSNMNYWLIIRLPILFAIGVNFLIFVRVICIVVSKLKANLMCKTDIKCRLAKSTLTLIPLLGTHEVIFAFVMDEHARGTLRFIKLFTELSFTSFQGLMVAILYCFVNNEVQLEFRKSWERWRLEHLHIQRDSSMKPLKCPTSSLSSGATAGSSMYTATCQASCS
Outline: as §1

[1] = HEK293, read-out: hGIPR Emax, % ± SEM, cAMP, 37° C., 0.1% bovine casein and 1.0% human serum albumin, percent of maximal response to GIP(1-42)NH2
[2] = hGIPR EC50, nM (SEM, n), cAMP, 37° C., 0.1% bovine casein (no human serum albumin)
[3] = hGCGR EC50, nM (SEM, n), cAMP, 37° C., 0.1% bovine casein (no human serum albumin), geometric mean
[4] = hGCGR EC50, nM (SEM, n), cAMP, 37° C., 0.1% bovine casein and 1.0% human serum albumin, geometric mean (SEM, n)
[5] = 37° C., 0.1% bovine casein (no human serum albumin), geometric mean

CC[C@H](C)[C@H](NC(=O)[C@H](CC(C)C)NC(=O)[C@](C)(Cc1ccc(O)cc1)NC(=O)[C@@H](CCC(=O)O)NC(=O)[C@@H](NC(=O)[C@H](Cc1ccccc1)NC(=O)[C@H](CCC(=O)O)NC(=O)C(C)(C)NC(=O)[C@H](CCC(N)=O)NC(=O)[C@H](C)NC(=O)[C@H](CCCCNC(=O)COCCOCCNC(=O)COCCOCCNC(=O)CC[C@H](NC(=O)CCCCCCCCCOc1ccc(C(=O)O)cc1)C(=O)O)NC(=O)[C@H](CCCN)NC(=O)[C@H](CC(=O)O)NC(=O)[C@H](CC(C)C)NC(=O)[C@](C)(CC(C)C)NC(=O)[C@@H](NC(=O)C(C)(C)NC(=O)[C@H](Cc1ccc(O)cc1)NC(=O)[C@H](CC(=O)O)NC(=O)[C@H](CO)NC(=O)[C@@H](NC(=O)[C@](C)(Cc1ccccc1F)NC(=O)[C@@H](NC(=O)CNC(=O)[C@H](CCC(=O)O)NC(=O)C(C)(C)NC(=O)[C@@H](N)Cc1ccc(O)cc1)[C@@H](C)O)[C@@H](C)O)[C@@H](C)CC)[C@@H](C)CC)C(=O)N[C@@H](CCCCNC(=O)COCCOCCNC(=O)COCCOCCNC(=O)CC[C@H](NC(=O)CCCCCCCCCOc1ccc(C(=O)O)cc1)C(=O)O)C(=O)NCC(=O)NCC(=O)N1CCC[C@H]1C(=O)N[C@@H](CO)C(=O)N[C@@H](CO)C(=O)NCC(=O)N[C@@H](C)C(=O)N1CCC[C@H]1C(=O)N1CCC[C@H]1C(=O)N1CCC[C@H]1C(=O)N[C@@H](CO)C(N)=O [Example 237]
Emax (hGIPR; HEK293, read-out: hGIPR Emax, % ± SEM, 0.1% bovine casein and 1.0% human serum albumin, 37° C., percent of maximal response to GIP(1-42)NH2): 93.1% | EC50 (hGIPR; hGIPR EC50, nM (SEM, n), cAMP, incubated at 37° C., 0.1% bovine casein (no human serum albumin)): 0.0186 nM | EC50 (hGCGR; hGCGR EC50, nM (SEM, n), 0.1% bovine casein and 1.0% human serum albumin, 37° C., geometric mean): > 9950 nM | EC50 (hGCGR; hGCGR EC50, nM (SEM, n), cAMP, incubated at 37° C., 0.1% bovine casein (no human serum albumin), geometric mean): > 9950 nM | Emax (hGLP-1R; HEK293, read-out: hGLP-1R Emax, % ± SEM, 0.1% bovine casein and 1.0% human serum albumin, 37° C., percent of maximal response to GLP-1(7-36)NH2): 113% | EC50 (hGLP-1R; incubated at 37° C., 0.1% bovine casein (no human serum albumin), geometric mean): 0.633 nM

CC[C@H](C)[C@H](NC(=O)[C@H](CC(C)C)NC(=O)[C@](C)(Cc1ccc(O)cc1)NC(=O)[C@@H](CCC(=O)O)NC(=O)[C@@H](NC(=O)[C@H](Cc1ccccc1)NC(=O)[C@H](CCC(=O)O)NC(=O)C(C)(C)NC(=O)[C@H](CCC(N)=O)NC(=O)[C@H](C)NC(=O)[C@H](CCCCNC(=O)COCCOCCNC(=O)COCCOCCNC(=O)CC[C@H](NC(=O)CCCCCCCCCOc1ccc(C(=O)O)cc1)C(=O)O)NC(=O)[C@H](CCCN)NC(=O)[C@H](CC(=O)O)NC(=O)[C@H](CC(C)C)NC(=O)[C@](C)(CC(C)C)NC(=O)[C@@H](NC(=O)[C@H](CO)NC(=O)[C@H](CCc1ccc(O)cc1)NC(=O)[C@H](CC(=O)O)NC(=O)[C@H](CO)NC(=O)[C@@H](NC(=O)[C@](C)(Cc1ccccc1F)NC(=O)[C@@H](NC(=O)CNC(=O)[C@H](CCC(=O)O)NC(=O)C(C)(C)NC(=O)[C@@H](N)Cc1ccc(O)cc1)[C@@H](C)O)[C@@H](C)O)[C@@H](C)CC)[C@@H](C)CC)C(=O)N[C@@H](CCCCNC(=O)COCCOCCNC(=O)COCCOCCNC(=O)CC[C@H](NC(=O)CCCCCCCCCOc1ccc(C(=O)O)cc1)C(=O)O)C(=O)NCC(=O)NCC(=O)N1CCC[C@H]1C(=O)N[C@@H](CO)C(=O)N[C@@H](CO)C(=O)NCC(=O)N[C@@H](C)C(=O)N1CCC[C@H]1C(=O)N1CCC[C@H]1C(=O)N1CCC[C@H]1C(=O)N[C@@H](CO)C(N)=O [Example 327]
Emax (hGIPR; [1]): 90.2% | EC50 (hGIPR; [2]): 0.018 nM | EC50 (hGCGR; [3]): > 9950 nM | EC50 (hGCGR; [4]): > 9950 nM | EC50 (hGLP-1R; [5]): 0.211 nM | EC50 (hGLP-1R; 37° C., 0.1% bovine casein and 1.0% human serum albumin, geometric mean (SEM, n)): 13.6 nM

CC[C@H](C)[C@H](NC(=O)[C@H](CC(C)C)NC(=O)[C@](C)(Cc1ccc(O)cc1)NC(=O)[C@@H](CCC(=O)O)NC(=O)[C@@H](NC(=O)[C@H](Cc1ccccc1)NC(=O)[C@H](CCCCNC(=O)COCCOCCNC(=O)COCCOCCNC(=O)CCCCCCCCCOc1ccc(C(=O)O)cc1)NC(=O)C(C)(C)NC(=O)[C@H](CCC(N)=O)NC(=O)[C@H](C)NC(=O)[C@H](CCCCNC(=O)COCCOCCNC(=O)COCCOCCNC(=O)CCCCCCCCCOc1ccc(C(=O)O)cc1)NC(=O)[C@H](CCCN)NC(=O)[C@H](CC(=O)O)NC(=O)[C@H](CC(C)C)NC(=O)[C@](C)(CC(C)C)NC(=O)[C@@H](NC(=O)C(C)(C)NC(=O)[C@H](Cc1ccncc1)NC(=O)[C@H](CC(=O)O)NC(=O)[C@H](CO)NC(=O)[C@@H](NC(=O)[C@](C)(Cc1ccccc1F)NC(=O)[C@@H](NC(=O)CNC(=O)[C@H](CCC(=O)O)NC(=O)C(C)(C)NC(=O)[C@@H](N)Cc1ccc(O)cc1)[C@@H](C)O)[C@@H](C)O)[C@@H](C)CC)[C@@H](C)CC)C(=O)N[C@@H](CCC(=O)O)C(=O)NCC(=O)NCC(=O)N1CCC[C@H]1C(=O)N[C@@H](CO)C(=O)N[C@@H](CO)C(=O)NCC(=O)N[C@@H](C)C(=O)N1CCC[C@H]1C(=O)N1CCC[C@H]1C(=O)N1CCC[C@H]1C(=O)N[C@@H](CO)C(N)=O [Example 392]
Emax (hGIPR; [1]): 85.7% | Emax (hGIPR; HEK293, read-out: hGIPR Emax, % ± SEM, cAMP, 37° C., 0.1% bovine casein, percent of maximal response to GIP(1-42)NH2, arithmetic mean): 94.4% | EC50 (hGIPR; [2]): 0.0107 nM | EC50 (hGCGR; [3]): > 9950 nM | EC50 (hGCGR; [4]): > 9950 nM | Emax (hGLP-1R; HEK293, read-out: hGLP-1R Emax, % ± SEM, cAMP, 37° C., 0.1% bovine casein, percent of maximal response to GLP-1(7-36)NH2, arithmetic mean): 97.9% | EC50 (hGLP-1R; [5]): 0.521 nM

CC[C@H](C)[C@H](NC(=O)[C@H](CC(C)C)NC(=O)[C@](C)(Cc1ccc(O)cc1)NC(=O)[C@@H](CCC(=O)O)NC(=O)[C@@H](NC(=O)[C@H](Cc1ccccc1)NC(=O)[C@H](CCC(=O)O)NC(=O)C(C)(C)NC(=O)[C@H](CCC(N)=O)NC(=O)[C@H](C)NC(=O)[C@H](CCCCNC(=O)COCCOCCNC(=O)COCCOCCNC(=O)CC[C@H](NC(=O)CCCCCCCCCCCCC(=O)O)C(=O)O)NC(=O)[C@H](CCCN)NC(=O)[C@H](CC(=O)O)NC(=O)[C@H](CC(C)C)NC(=O)[C@](C)(CC(C)C)NC(=O)[C@@H](NC(=O)C1(NC(=O)[C@H](Cc2ccncc2)NC(=O)[C@H](CC(=O)O)NC(=O)[C@H](CO)NC(=O)[C@@H](NC(=O)[C@](C)(Cc2ccccc2F)NC(=O)[C@@H](NC(=O)CNC(=O)[C@H](CCC(=O)O)NC(=O)C(C)(C)NC(=O)[C@@H](N)Cc2ccc(O)cc2)[C@@H](C)O)[C@@H](C)O)CCCC1)[C@@H](C)CC)[C@@H](C)CC)C(=O)N[C@@H](CCC(=O)O)C(=O)NCC(=O)NCC(=O)N[C@@H](CCCCNC(=O)COCCOCCNC(=O)COCCOCCNC(=O)CC[C@H](NC(=O)CCCCCCCCCCCCC(=O)O)C(=O)O)C(=O)N[C@@H](CO)C(=O)N[C@@H](CO)C(=O)NCC(=O)N[C@@H](C)C(=O)N1CCC[C@H]1C(=O)N1CCC[C@H]1C(=O)N1CCC[C@H]1C(=O)N[C@@H](CO)C(N)=O [Example 211]
EC50 (hGIPR; 0.1% bovine casein and 1.0% human serum albumin, 37° C., read-out: hGIPR EC50, nM (SEM, n)): 2.16 nM | Emax (hGIPR; HEK293, 0.1% bovine casein and 1.0% human serum albumin, 37° C., percent of maximal response to GIP(1-42)NH2, read-out: hGIPR Emax, % ± SEM): 64.5% | Emax (hGIPR; HEK293, percent of maximal response to GIP(1-42)NH2, 37° C., 0.1% bovine casein, arithmetic mean, read-out: hGIPR Emax, % ± SEM): 91.6% | EC50 (hGCGR; 0.1% bovine casein and 1.0% human serum albumin, 37° C., geometric mean, read-out: hGCGR EC50, nM (SEM, n)): > 9950 nM | EC50 (hGCGR; cAMP, incubated at 37° C., 0.1% bovine casein (no human serum albumin), geometric mean, read-out: hGCGR EC50, nM (SEM, n)): > 9950 nM | Emax (hGLP-1R; HEK293, 0.1% bovine casein and 1.0% human serum albumin, 37° C., percent of maximal response to GLP-1(7-36)NH2, read-out: hGLP-1R Emax, % ± SEM): 99% | Emax (hGLP-1R; HEK293, percent of maximal response to GLP-1(7-36)NH2, 37° C., 0.1% bovine casein, arithmetic mean, read-out: hGLP-1R Emax, % ± SEM): 93.1%

From patent US20230265151A1, “GIP/GLP1 CO-AGONIST COMPOUNDS” (priority 2020, published 2023)
